Data reported in PubChem BioAssay (NCI).
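Method: 48-hour compound exposure of cells in 96-well plates, five concentrations, linear interpolation of endpoints. GI50: concentration for 50% inhibition of growth. TGI: concentration producing complete growth inhibition.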

Legend:
Assay in all cases: NCI tumour cell line growth inhibition, 48 h
[1] = tested on: 786-0 renal
[2] = tested on: A498 renal
[3] = tested on: A549 NSCLC
[4] = tested on: ACHN renal
[5] = tested on: BT-549 breast
[6] = tested on: CAKI-1 renal
[7] = tested on: CCRF-CEM leukemia
[8] = tested on: COLO 205 colon
[9] = tested on: DU-145 prostate
[10] = tested on: EKVX NSCLC
[11] = tested on: HCC-2998 colon
[12] = tested on: HCT-116 colon
[13] = tested on: HCT-15 colon
[14] = tested on: HL-60(TB) leukemia
[15] = tested on: HOP-62 NSCLC
[16] = tested on: HOP-92 NSCLC
[17] = tested on: HS 578T breast
[18] = tested on: HT29 colon
[19] = tested on: IGROV1 ovarian
[20] = tested on: K-562 leukemia
[21] = tested on: KM12 colon
[22] = tested on: LOX IMVI melanoma
[23] = tested on: M14 melanoma
[24] = tested on: MALME-3M melanoma
[25] = tested on: MCF7 breast
[26] = tested on: MDA-MB-231 breast
[27] = tested on: MDA-MB-435
[28] = tested on: MDA-MB-468 breast
[29] = tested on: MOLT-4 leukemia
[30] = tested on: NCI-H226 lung
[31] = tested on: NCI-H23 lung
[32] = tested on: NCI-H460 lung
[33] = tested on: NCI-H522 lung
[34] = tested on: NCI/ADR-RES ovarian
[35] = tested on: OVCAR-3 ovarian
[36] = tested on: OVCAR-4 ovarian
[37] = tested on: OVCAR-5 ovarian
[38] = tested on: OVCAR-8 ovarian
[39] = tested on: PC-3 prostate
[40] = tested on: RPMI-8226 leukemia
[41] = tested on: RXF 393 renal
[42] = tested on: SF-268 CNS
[43] = tested on: SF-295 CNS
[44] = tested on: SF-539 CNS
[45] = tested on: SK-MEL-2 melanoma
[46] = tested on: SK-MEL-28 melanoma
[47] = tested on: SK-MEL-5 melanoma
[48] = tested on: SK-OV-3 ovarian
[49] = tested on: SN12C renal
[50] = tested on: SNB-19 CNS
[51] = tested on: SNB-75 CNS
[52] = tested on: SR leukemia
[53] = tested on: SW-620 colon
[54] = tested on: T-47D breast
[55] = tested on: TK-10 renal
[56] = tested on: U251 CNS
[57] = tested on: UACC-257 melanoma
[58] = tested on: UACC-62 melanoma
[59] = tested on: UO-31 renal

CCOP(=O)(OCC)O[C@H]1CC[C@]2(C)[C@H]3CC[C@@H]4[C@@H]([C@](C)(O)CCC=C(C)C)CC[C@@]4(C)[C@]3(C)CC[C@H]2C1(C)C
GI50 [1]: 11.9 µM
TGI [1]: 28.3 µM
GI50 [2]: 12.4 µM
TGI [2]: 25.1 µM
GI50 [3]: 12.6 µM
TGI [3]: 30.3 µM
GI50 [4]: 12.5 µM
TGI [4]: 25 µM
GI50 [5]: 14.9 µM
TGI [5]: 29.1 µM
GI50 [6]: 10.3 µM
TGI [6]: 22.8 µM
GI50 [7]: 11.5 µM
TGI [7]: 29.3 µM
GI50 [8]: 12.4 µM
TGI [8]: 29.5 µM
GI50 [9]: 14.8 µM
TGI [9]: 30.4 µM
GI50 [10]: 10.1 µM
TGI [10]: 21.6 µM
GI50 [11]: 13.4 µM
TGI [11]: 26 µM
GI50 [12]: 5.91 µM
TGI [12]: 21.7 µM
GI50 [13]: 10.7 µM
TGI [13]: 22.4 µM
GI50 [14]: 8.49 µM
TGI [14]: 33.2 µM
GI50 [15]: 14.1 µM
TGI [15]: 29.5 µM
GI50 [16]: 10.3 µM
TGI [16]: 23.4 µM
GI50 [17]: 11.5 µM
TGI [17]: 31.8 µM
GI50 [18]: 7.35 µM
TGI [18]: 23.2 µM
GI50 [19]: 13.8 µM
TGI [19]: 27.5 µM
GI50 [20]: 6.99 µM
TGI [20]: 98.8 µM
GI50 [21]: 15.4 µM
TGI [21]: 33.2 µM
GI50 [22]: 12.7 µM
TGI [22]: 25.2 µM
GI50 [23]: 14.9 µM
TGI [23]: 35 µM
GI50 [24]: 11.7 µM
TGI [24]: 24 µM
GI50 [25]: 7.26 µM
TGI [25]: 20.5 µM
GI50 [26]: 11.5 µM
TGI [26]: 23.7 µM
GI50 [27]: 12.8 µM
TGI [27]: 27.1 µM
GI50 [28]: 5.1 µM
TGI [28]: 18.2 µM
GI50 [29]: 8.07 µM
TGI [29]: 29.1 µM
GI50 [30]: 11.8 µM
TGI [30]: 25.3 µM
GI50 [31]: 10.1 µM
TGI [31]: 21.7 µM
GI50 [32]: 12.9 µM
TGI [32]: 27.6 µM
GI50 [33]: 11.5 µM
TGI [33]: 25.9 µM
GI50 [34]: 14.7 µM
TGI [34]: 28.5 µM
GI50 [35]: 13.5 µM
TGI [35]: 27.2 µM
GI50 [36]: 13.4 µM
TGI [36]: 32 µM
GI50 [37]: 12.7 µM
TGI [37]: 25.2 µM
GI50 [38]: 13.2 µM
TGI [38]: 30.8 µM
GI50 [39]: 3.45 µM
TGI [39]: 17 µM
GI50 [40]: 3.02 µM
TGI [40]: 17.5 µM
GI50 [41]: 6.45 µM
TGI [41]: 19.5 µM
GI50 [42]: 12.7 µM
TGI [42]: 30.9 µM
GI50 [43]: 12.4 µM
TGI [43]: 24.8 µM
GI50 [44]: 13.2 µM
TGI [44]: 25.8 µM
GI50 [45]: 13.2 µM
TGI [45]: 26.9 µM
GI50 [46]: 12.9 µM
TGI [46]: 25.8 µM
GI50 [47]: 10.4 µM
TGI [47]: 22.2 µM
GI50 [48]: 12.3 µM
TGI [48]: 27 µM
GI50 [49]: 11.8 µM
TGI [49]: 24 µM
GI50 [50]: 13.4 µM
TGI [50]: 26.1 µM
GI50 [51]: 7.02 µM
TGI [51]: 22.4 µM
GI50 [52]: 3.12 µM
TGI [52]: 98.8 µM
GI50 [53]: 13.2 µM
TGI [53]: 27.4 µM
GI50 [54]: 7.62 µM
TGI [54]: 25.2 µM
GI50 [55]: 13.5 µM
TGI [55]: 27.7 µM
GI50 [56]: 11.8 µM
TGI [56]: 28.4 µM
GI50 [57]: 12.4 µM
TGI [57]: 27.3 µM
GI50 [58]: 10.7 µM
TGI [58]: 22.6 µM
GI50 [59]: 10.1 µM
TGI [59]: 21.6 µM
